The text below walks through data of patent US11168073B2, “3,3-difluoroallylamines or salts thereof and pharmaceutical compositions comprising the same” (YUHAN CORPORATION, priority 2018, dated 2021).

Counter-ions that a name gives are not always drawn. Like-named read-outs stand apart in the source and are kept apart here. Where only a bound is given, the exact number is not on record here.

Format in all cases: biochemical
Test [1] addresses T1, recombinant human DAO (diamine oxidase) (Homo sapiens, UniProt P19801).
T1 construct: purchased R&D systems
T1 sequence (P19801 20-751): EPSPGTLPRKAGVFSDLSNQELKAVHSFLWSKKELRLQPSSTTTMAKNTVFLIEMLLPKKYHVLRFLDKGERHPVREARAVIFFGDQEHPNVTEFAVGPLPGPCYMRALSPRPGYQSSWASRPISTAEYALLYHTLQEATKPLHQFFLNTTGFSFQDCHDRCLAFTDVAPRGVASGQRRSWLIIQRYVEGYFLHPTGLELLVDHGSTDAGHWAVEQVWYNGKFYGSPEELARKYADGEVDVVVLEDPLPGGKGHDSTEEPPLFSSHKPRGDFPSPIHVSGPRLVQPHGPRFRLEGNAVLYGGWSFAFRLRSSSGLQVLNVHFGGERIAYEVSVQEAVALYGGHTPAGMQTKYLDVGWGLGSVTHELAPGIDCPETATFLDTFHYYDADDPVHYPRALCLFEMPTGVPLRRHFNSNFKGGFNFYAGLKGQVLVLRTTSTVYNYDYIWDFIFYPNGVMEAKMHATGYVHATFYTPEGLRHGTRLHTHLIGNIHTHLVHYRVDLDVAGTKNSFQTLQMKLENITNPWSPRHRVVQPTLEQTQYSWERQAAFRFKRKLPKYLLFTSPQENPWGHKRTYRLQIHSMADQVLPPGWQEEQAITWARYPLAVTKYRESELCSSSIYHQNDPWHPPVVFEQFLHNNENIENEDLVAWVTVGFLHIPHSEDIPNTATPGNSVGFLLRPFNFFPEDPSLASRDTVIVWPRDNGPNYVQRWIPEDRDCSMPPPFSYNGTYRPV
Put plainly: Activity evaluation on recombinant human DAO (Amplex Red/HRP-coupled assay, 1 mM putrescine substrate). As to conditions: read-out: Inhibitory Activity (IC50, nM) DAO. Put shortly: (§1)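 Enzyme was preincubated with compounds (8-point 1:3 series, final DMSO <1%) 30 min at 37 °C in 50 mM sodium phosphate pH 7.4, then given 200 uM Amplex Red and 1 U/mL HRP with substrate. H2O2-derived resorufin fluorescence (ex 544/em 590 nm) was followed over 1–2 h; IC50 came from 4-parameter logistic fits of signal-rate inhibition versus DMSO control.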

Test [2] concerns the target T2, recombinant human MAO-A (monoamine oxidase-A) (Homo sapiens, UniProt P21397).
T2 construct: purchased Sigma-Aldrich
T2 sequence (P21397 1-527): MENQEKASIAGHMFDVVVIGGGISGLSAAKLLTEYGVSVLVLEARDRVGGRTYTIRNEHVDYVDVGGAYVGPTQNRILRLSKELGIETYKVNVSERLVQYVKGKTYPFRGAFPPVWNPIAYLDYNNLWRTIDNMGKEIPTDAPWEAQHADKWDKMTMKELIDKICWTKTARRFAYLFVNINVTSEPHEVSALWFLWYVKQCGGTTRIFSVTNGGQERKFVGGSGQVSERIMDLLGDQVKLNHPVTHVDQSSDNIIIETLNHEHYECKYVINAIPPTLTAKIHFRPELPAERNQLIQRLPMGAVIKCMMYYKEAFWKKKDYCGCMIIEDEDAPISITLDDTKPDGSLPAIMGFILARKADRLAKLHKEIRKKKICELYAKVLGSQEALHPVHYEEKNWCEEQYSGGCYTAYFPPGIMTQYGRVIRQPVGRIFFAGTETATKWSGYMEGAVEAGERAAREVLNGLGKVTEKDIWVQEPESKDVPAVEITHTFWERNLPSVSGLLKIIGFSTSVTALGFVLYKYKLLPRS
Put plainly: Activity evaluation on recombinant human MAO-A (Amplex Red/HRP-coupled assay, 0.5 mM tyramine substrate). As to conditions: read-out: Inhibitory Activity (IC50, nM) MAO-A. An outline of the steps: as §1

The target in test [3] is T3, recombinant human MAO-B (monoamine oxidase-B) (Homo sapiens, UniProt P27338).
T3 construct: purchased Sigma-Aldrich
T3 sequence (P27338 1-520): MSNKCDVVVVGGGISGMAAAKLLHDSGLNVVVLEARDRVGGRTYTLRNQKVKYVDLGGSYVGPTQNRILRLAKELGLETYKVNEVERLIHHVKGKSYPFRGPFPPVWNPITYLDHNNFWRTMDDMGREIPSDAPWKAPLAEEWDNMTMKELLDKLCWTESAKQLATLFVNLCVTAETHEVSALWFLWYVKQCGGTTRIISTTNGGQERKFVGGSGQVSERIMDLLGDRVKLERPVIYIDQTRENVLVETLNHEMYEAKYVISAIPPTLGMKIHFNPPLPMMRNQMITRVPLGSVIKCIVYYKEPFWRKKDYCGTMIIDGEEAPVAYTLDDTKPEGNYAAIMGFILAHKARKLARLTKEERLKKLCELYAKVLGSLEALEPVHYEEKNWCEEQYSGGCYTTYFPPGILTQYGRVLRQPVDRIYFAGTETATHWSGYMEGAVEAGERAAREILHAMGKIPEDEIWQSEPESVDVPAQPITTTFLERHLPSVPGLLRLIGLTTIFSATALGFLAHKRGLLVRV
Kind of test: Activity evaluation on recombinant human MAO-B (Amplex Red/HRP-coupled assay, 1 mM benzylamine substrate). As to conditions: read-out: Inhibitory Activity (IC50, nM) MAO-B. Put shortly: as §1

A further test deals with T4, recombinant human VAP-1 (Homo sapiens, UniProt Q16853).
T4 construct: purchased R&D systems
T4 sequence (Q16853 1-763): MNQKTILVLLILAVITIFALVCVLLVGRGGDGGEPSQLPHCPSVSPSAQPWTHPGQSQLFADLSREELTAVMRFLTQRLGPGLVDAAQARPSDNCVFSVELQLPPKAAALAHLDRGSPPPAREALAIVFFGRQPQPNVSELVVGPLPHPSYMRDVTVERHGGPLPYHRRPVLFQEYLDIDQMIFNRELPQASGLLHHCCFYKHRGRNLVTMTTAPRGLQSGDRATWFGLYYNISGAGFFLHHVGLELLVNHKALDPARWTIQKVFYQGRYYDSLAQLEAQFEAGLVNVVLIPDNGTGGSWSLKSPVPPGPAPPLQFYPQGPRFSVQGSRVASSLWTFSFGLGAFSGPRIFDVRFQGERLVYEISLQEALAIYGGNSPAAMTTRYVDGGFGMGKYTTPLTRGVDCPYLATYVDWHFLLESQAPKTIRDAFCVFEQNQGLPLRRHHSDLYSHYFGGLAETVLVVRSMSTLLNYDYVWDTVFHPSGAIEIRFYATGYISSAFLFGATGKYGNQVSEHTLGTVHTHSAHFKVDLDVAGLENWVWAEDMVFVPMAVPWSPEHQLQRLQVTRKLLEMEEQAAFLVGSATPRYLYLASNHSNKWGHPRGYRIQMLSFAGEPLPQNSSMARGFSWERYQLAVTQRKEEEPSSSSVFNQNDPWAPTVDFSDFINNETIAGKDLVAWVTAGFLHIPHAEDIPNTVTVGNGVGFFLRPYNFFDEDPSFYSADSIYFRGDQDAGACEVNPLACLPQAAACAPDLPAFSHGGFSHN
Put plainly: Activity evaluation on recombinant human VAP-1 (Amplex Red/HRP-coupled hydrogen peroxide assay, benzylamine substrate). As to conditions: read-out: Inhibitory Activity (IC50, nM) human VAP-1. An outline of the steps: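 Recombinant human VAP-1 in 50 mM sodium phosphate pH 7.4 preincubated 30 min at 37 °C with compound (8-point 1:3 series, <1% DMSO), then 1 mM benzylamine, 200 uM Amplex Red, 1 U/mL HRP added. H2O2-derived resorufin fluorescence (ex 544/em 590) followed 1–2 h; IC50 from four-parameter fit of rate inhibition.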

[4] abbreviates: recombinant human VAP-1, 30 min preincubation at 37° C., 1 mM benzylamine.
Where [5] appears, read: recombinant human VAP-1, benzylamine substrate.

What is called IC50 is the concentration that inhibits the measured activity by half. Turning to `NCC(Cn1ncn(Cc2ccc(-c3ccc(C(F)(F)F)nc3)s2)c1=O)=C(F)F` [Example 111, 2-[2-(aminomethyl)-3,3-difluoro-allyl]-4-[[5-[6-(trifluoromethyl)-3-pyridyl]-2-thienyl]methyl]-1,2,4-triazol-3-one Trifluoroacetate], the half-maximal inhibitory concentration (IC50) in test [1] (1 mM putrescine) was 7200 nM; in test [2] (0.5 mM tyramine), greater than 100000 nM; in test [3] (1 mM benzylamine) it was 9400 nM; on recombinant human VAP-1 (setting [4]) it was 0.4 nM.

Take `NCC(Cn1ncn(CCc2cccs2)c1=O)=C(F)F` [Example 172, 2-[2-(aminomethyl)-3,3-difluoro-allyl]-4-[2-(2-thienyl)ethyl]-1,2,4-triazol-3-one Trifluoroacetate]: the IC50 in test [1] (1 mM putrescine) is greater than 100000 nM; in test [2] (0.5 mM tyramine) it was greater than 100000 nM; in test [3] (1 mM benzylamine) it was 61000 nM; on recombinant human VAP-1 (setting [4]) it was 13 nM.

For the molecule `Cc1cc(-c2cccc(-c3nc[nH]n3)c2)cnc1-n1cnn(CC(CN)=C(F)F)c1=O` [Example 239, 2-[2-(aminomethyl)-3,3-difluoro-allyl]-4-[3-methyl-5-[3-(1H-1,2,4-triazol-3-yl)phenyl]-2-pyridyl]-1,2,4-triazol-3-one trifluoroacetate], the IC50 in test [1] (1 mM putrescine substrate) was 11000 nM; in test [2] (0.5 mM tyramine substrate) it was greater than 100000 nM; in test [3] (1 mM benzylamine substrate), 14000 nM; at recombinant human VAP-1 (setting [5]), 2.7 nM.

Take `Cc1cc(-c2ccc(Cn3cnn(CC(CN)=C(F)F)c3=O)s2)cc2c1NC(=O)CC2` [Example 134, 6-[5-[[1-[2-(aminomethyl)-3,3-difluoro-allyl]-5-oxo-1,2,4-triazol-4-yl]methyl]-2-thienyl]-8-methyl-3,4-dihydro-1H-quinolin-2-one Trifluoroacetate]: the IC50 in test [1] (1 mM putrescine) is greater than 100000 nM; in test [2] (0.5 mM tyramine), greater than 100000 nM; in test [3] (1 mM benzylamine), 22000 nM; on recombinant human VAP-1 (setting [4]), 0.3 nM.

Take `COc1cc(-c2cnc(-n3cnn(CC(CN)=C(F)F)c3=O)c(C)c2)cc(OC)c1OC` [Example 224, 2-[2-(aminomethyl)-3,3-difluoro-allyl]-4-[3-methyl-5-(3,4,5-trimethoxyphenyl)-2-pyridyl]-1,2,4-triazol-3-one Trifluoroacetate]: the half-maximal inhibitory concentration (IC50) in test [1] (1 mM putrescine substrate) is 5500 nM; in test [2] (0.5 mM tyramine substrate), greater than 100000 nM; in test [3] (1 mM benzylamine substrate) it was 1900 nM; at recombinant human VAP-1 (setting [5]), 0.8 nM.

Turning to `Cc1cc(-c2cccc(-n3cnn(CC(CN)=C(F)F)c3=O)c2)cc2c1NC(=O)CC2` [Example 22, 6-[3-[1-[2-(aminomethyl)-3,3-difluoro-allyl]-5-oxo-1,2,4-triazol-4-yl]phenyl]-8-methyl-3,4-dihydro-1H-quinolin-2-one Trifluoroacetate], the IC50 in test [1] (1 mM putrescine) is greater than 10000 nM; in test [2] (0.5 mM tyramine), greater than 100000 nM; in test [3] (1 mM benzylamine), greater than 100000 nM; on recombinant human VAP-1 (setting [4]) it was 0.8 nM.

`NCC(Cn1ncn(Cc2cccc(-c3ccc4c(c3)OCO4)c2)c1=O)=C(F)F` [Example 274, 2-[2-(aminomethyl)-3,3-difluoro-allyl]-4-[[3-(1,3-benzodioxol-5-yl)phenyl]methyl]-1,2,4-triazol-3-one Trifluoroacetate]: the IC50 was 54100 nM in test [1] (1 mM putrescine substrate), greater than 100000 nM in test [2] (0.5 mM tyramine substrate), 125 nM in test [3] (1 mM benzylamine substrate) and 3.1 nM at recombinant human VAP-1 (setting [5]).

With `CCn1cc(-c2cc(F)c(Cn3cnn(CC(CN)=C(F)F)c3=O)s2)ccc1=O` [Example 299, 5-[5-[[1-[2-(aminomethyl)-3,3-difluoro-allyl]-5-oxo-1,2,4-triazol-4-yl]methyl]-4-fluoro-2-thienyl]-1-ethyl-pyridin-2-one Trifluoroacetate], the IC50 in test [1] (1 mM putrescine substrate) was 9680 nM; in test [2] (0.5 mM tyramine substrate) it was greater than 100000 nM; in test [3] (1 mM benzylamine substrate), greater than 100000 nM; at recombinant human VAP-1 (setting [5]), 1.4 nM.

For `Cc1c(-c2ccc(S(C)(=O)=O)cc2)cccc1-n1cnn(CC(CN)=C(F)F)c1=O` [Example 253, 2-[2-(aminomethyl)-3,3-difluoro-allyl]-4-[2-methyl-3-(4-methylsulfonylphenyl)phenyl]-1,2,4-triazol-3-one Trifluoroacetate], the IC50 in test [1] (1 mM putrescine substrate) is 8700 nM; in test [2] (0.5 mM tyramine substrate), greater than 100000 nM; in test [3] (1 mM benzylamine substrate), greater than 100000 nM; at recombinant human VAP-1 (setting [5]), 2.8 nM.

Regarding `CN(C)c1ccc(-c2ccc3sc(Cn4cnn(CC(CN)=C(F)F)c4=O)cc3c2)cn1` [Example 208, 2-[2-(aminomethyl)-3,3-difluoro-allyl]-4-[[5-[6-(dimethylamino)-3-pyridyl]benzothiophen-2-yl]methyl]-1,2,4-triazol-3-one Trifluoroacetate], the IC50 was greater than 100000 nM in test [1] (1 mM putrescine substrate), 89900 nM in test [2] (0.5 mM tyramine substrate), 42400 nM in test [3] (1 mM benzylamine substrate) and 2.5 nM at recombinant human VAP-1 (setting [5]).

Regarding `NCC(Cn1ncn(-c2ccc(-c3ccc(C(F)(F)F)nc3)c(F)c2)c1=O)=C(F)F` [Example 26, 2-[2-(aminomethyl)-3,3-difluoro-allyl]-4-[3-fluoro-4-[6-(trifluoromethyl)-3-pyridyl]phenyl]-1,2,4-triazol-3-one Trifluoroacetate], the IC50 in test [1] (1 mM putrescine) is 71 nM; in test [2] (0.5 mM tyramine), greater than 100000 nM; in test [3] (1 mM benzylamine) it was 180 nM; at recombinant human VAP-1 (setting [4]) it was 0.7 nM.
